Each structure is given as a SMILES string.

wild-type human cardiac sodium channel, hNav1.5 (late sodium current), sequence (Q14524 whole entry): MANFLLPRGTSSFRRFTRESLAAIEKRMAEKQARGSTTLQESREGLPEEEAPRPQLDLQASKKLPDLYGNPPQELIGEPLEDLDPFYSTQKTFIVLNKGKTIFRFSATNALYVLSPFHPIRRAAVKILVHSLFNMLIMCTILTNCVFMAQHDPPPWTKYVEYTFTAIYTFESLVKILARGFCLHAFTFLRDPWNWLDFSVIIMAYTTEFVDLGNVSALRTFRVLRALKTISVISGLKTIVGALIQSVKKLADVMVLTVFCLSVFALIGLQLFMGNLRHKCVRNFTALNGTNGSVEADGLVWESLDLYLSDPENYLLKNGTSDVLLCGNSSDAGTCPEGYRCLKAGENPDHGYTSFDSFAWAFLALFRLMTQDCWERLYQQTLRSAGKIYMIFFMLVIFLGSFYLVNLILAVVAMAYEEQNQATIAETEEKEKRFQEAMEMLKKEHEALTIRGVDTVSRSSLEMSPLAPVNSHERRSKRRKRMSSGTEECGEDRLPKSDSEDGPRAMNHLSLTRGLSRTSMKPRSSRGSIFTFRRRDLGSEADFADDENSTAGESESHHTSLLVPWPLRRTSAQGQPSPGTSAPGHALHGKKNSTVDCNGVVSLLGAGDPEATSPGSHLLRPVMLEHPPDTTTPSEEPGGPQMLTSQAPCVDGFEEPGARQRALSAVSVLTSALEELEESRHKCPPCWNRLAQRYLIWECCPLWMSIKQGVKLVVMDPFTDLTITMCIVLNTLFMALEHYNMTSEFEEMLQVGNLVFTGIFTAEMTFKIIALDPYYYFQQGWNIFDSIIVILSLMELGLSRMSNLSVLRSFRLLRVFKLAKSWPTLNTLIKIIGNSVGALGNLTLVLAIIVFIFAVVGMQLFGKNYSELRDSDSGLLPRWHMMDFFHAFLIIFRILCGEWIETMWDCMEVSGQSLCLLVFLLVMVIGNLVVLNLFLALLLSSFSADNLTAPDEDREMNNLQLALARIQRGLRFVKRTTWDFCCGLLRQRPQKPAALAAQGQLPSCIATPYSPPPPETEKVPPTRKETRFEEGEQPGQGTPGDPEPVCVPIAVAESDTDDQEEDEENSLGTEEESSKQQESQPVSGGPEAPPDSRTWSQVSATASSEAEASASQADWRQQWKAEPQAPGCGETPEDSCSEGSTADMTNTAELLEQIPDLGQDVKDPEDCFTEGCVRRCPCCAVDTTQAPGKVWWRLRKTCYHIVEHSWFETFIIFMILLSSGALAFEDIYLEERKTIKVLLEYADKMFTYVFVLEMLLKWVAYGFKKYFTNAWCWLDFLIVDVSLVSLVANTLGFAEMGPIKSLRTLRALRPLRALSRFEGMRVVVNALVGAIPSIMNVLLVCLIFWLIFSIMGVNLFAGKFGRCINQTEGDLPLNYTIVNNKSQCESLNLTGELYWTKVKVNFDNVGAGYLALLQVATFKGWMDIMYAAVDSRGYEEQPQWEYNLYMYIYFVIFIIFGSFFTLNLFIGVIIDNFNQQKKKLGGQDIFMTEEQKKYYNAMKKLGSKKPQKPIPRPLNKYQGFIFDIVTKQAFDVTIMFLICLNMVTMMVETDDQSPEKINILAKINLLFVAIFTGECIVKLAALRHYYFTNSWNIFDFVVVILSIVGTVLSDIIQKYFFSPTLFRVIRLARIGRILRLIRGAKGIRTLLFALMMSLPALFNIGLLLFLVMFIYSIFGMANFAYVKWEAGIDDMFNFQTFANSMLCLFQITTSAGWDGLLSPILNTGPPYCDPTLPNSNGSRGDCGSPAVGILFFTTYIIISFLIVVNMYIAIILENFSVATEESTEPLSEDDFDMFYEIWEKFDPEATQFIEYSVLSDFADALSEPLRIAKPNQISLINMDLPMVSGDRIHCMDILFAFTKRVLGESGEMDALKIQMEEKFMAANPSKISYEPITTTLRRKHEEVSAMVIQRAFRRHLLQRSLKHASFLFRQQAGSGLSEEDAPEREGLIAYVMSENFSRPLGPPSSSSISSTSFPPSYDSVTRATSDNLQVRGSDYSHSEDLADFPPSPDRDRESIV

The target in the experiment is wild-type human cardiac sodium channel, hNav1.5 (late sodium current) (Homo sapiens, UniProt Q14524). Nature of the experiment: Late INa screening assay (PatchXpress whole cell patch clamp). The format is cell-based. To be noted: HEK293, 10 μM test compound; HEK293 cells expressing hNav1.5; late INa generated with 10 μM Tefluthrin (some experiments 50 nM ATX II); read-out: Late INa % blk (10 μM test cmpd). On the procedure:
The late sodium current (Late INa) and peak sodium current (Peak INa) assays were performed on an automated electrophysiology platform, PatchXpress 7000A (MDS Analytical Technologies, Sunnyvale, Calif.), which uses the whole cell patch clamp technique to measure currents through the cell membrane of up to 16 cells at a time. The assay used an HEK293 (human embryonic kidney) cell line heterologously expressing the wild-type human cardiac sodium channel, hNav1.5, purchased from Millipore (Billerica, Mass.). No beta subunits were coexpressed with the Na channel alpha subunit. Cells were maintained with standard tissue culture procedures and stable channel expression was maintained with 400 μg/ml Geneticin in the culture medium. Cells isolated for use on PatchXpress were incubated for 5 minutes in Versene 1× and then for 2 minutes in 0.0125% Trypsin-EDTA (both at 37° C.) to ensure that 80-90% of the cells are single and not part of a cell cluster. Experiments were carried out at 24-27° C.
For both the Late INa and Peak INa assays, series resistance compensation was set to 50% and whole-cell compensation was performed automatically. Currents were low-pass filtered at 10 kHz and digitized at 31.25 kHz. Currents through open sodium channels were automatically recorded and stored in the DataXpress2 database (MDS Analytical Technologies, Sunnyvale, Calif.). Analysis was performed using DataXpress2 analysis software and data are compiled in Excel.
Compound stocks were routinely made in glass vials to 10 mM in dimethyl sulfoxide (DMSO). In some cases, when compounds were not soluble in DMSO, they were made in 100% ethanol. Stocks were sonicated as necessary. The extracellular solution for screening Late INa was composed of: 140 mM NaCl, 4 mM KCl, 1.8 mM CaCl2, 0.75 mM MgCl2, and 5 mM HEPES with pH adjusted to 7.4 using NaOH. The extracellular solution for screening Peak INa was composed of: 20 mM NaCl, 120 mM N-methyl-D glucamine, 4 mM KCl, 1.8 mM CaCl2, 0.75 mM MgCl2, and 5 mM HEPES with pH adjusted to 7.4 using HCl. The intracellular solution used to perfuse the inside of the cells for both the Late INa and Peak INa assays contains: 120 mM CsF, 20 mM CsCl, 5 mM EGTA, 5 mM HEPES and pH adjusted to 7.4 with CsOH. Compounds were diluted in extracellular solution to 10 μM in glass vials and then transferred to glass well plates before robotic addition to the cells. The 0Na extracellular solution used at the end of each experiment for the Late INa and Peak INa assays to measure baseline current contained: 140 mM N-methyl-D-glucamine; 4 mM KCl; 1.8 mM CaCl2; 0.75 mM MgCl2; 5 mM HEPES and pH was adjusted to 7.4 with HCl.
For the Late INa assay, sodium channels were activated every 10 seconds (0.1 Hz) by depolarizing the cell membrane to −20 mV for 250 milliseconds (ms) from a holding potential of −120 mV. In response to a −20 mV voltage step, typical Nav1.5 sodium currents activated rapidly to a peak negative current and then inactivated nearly completely within 3-4 ms.
All compounds were tested to determine their activity in blocking the late sodium current. Late INa current is generated by adding 10 μM Tefluthrin (pyrethroid) to the extracellular solution while recording Na currents. For some experiments, 50 nM ATX II (sea anemone toxin), another late INa activator, was used to generate the late component. Both activators generate late components that are large enough that block of the late component by compounds can be measured easily. For the purposes of the screening, late INa is defined as the mean current between 225 ms and 250 ms after stepping to −20 mV to activate Na channels. After establishing the whole cell recording configuration, late INa activators were added to each well 4 times over a 16-17 minute period so that the late component of the Na current reached a stable value. Compounds were then added (typically at 10 μM), in the presence of late INa activator, with 3 additions over the course of 7 or 8 minutes. […]
In general terms: Patch clamp records ionic current or voltage across a cell membrane.
Regarding `CC(C)(C)OC(=O)CN1C(=O)CCc2cc(-c3cccc(Cl)c3)ccc21` [Compound 53, tert-butyl [6-(3-chlorophenyl)-2-oxo-3,4-dihydroquinolin-1(2H)-yl]acetate], the inhibition at 10 µM is 73%.
As for `CCOC(=O)CN1C(=O)CCc2cc(-c3ccc(C(F)(F)F)cc3)ccc21` [Compound 54, ethyl {2-oxo-6-[4-(trifluoromethyl)phenyl]-3,4-dihydroquinolin-1(2H)-yl}acetate], the figure is 13%; as for `NC(=O)CN1C(=O)CCc2cc(-c3ccc(F)cc3F)ccc21` [Compound 55, 2-[6-(2,4-difluorophenyl)-2-oxo-3,4-dihydroquinolin-1(2H)-yl]acetamide], 14%; as for `NC(=O)CN1C(=O)CCc2cc(-c3ccc(C(F)(F)F)cc3)ccc21` [Compound 56, 2-{2-oxo-6-[4-(trifluoromethyl)phenyl]-3,4-dihydroquinolin-1(2H)-yl}acetamide], 14%.
As for `O=C(O)CN1C(=O)CCc2cc(-c3cccc(F)c3)ccc21` [Compound 59, [6-(3-fluorophenyl)-2-oxo-3,4-dihydroquinolin-1(2H)-yl]acetic acid], the figure is 10%.
`CC(C)(C)OC(=O)CN1C(=O)CCc2cc(-c3ccc(Oc4ccccc4)cc3)ccc21` [Compound 66, tert-butyl [2-oxo-6-(4-phenoxyphenyl)-3,4-dihydroquinolin-1(2H)-yl]acetate]: the inhibition at 10 µM was determined as 27%.
On to `CC(C)(C)OC(=O)CN1C(=O)CCc2cc(-c3ccc(Cl)c(C(F)(F)F)c3)ccc21` [Compound 67, tert-butyl {6-[4-chloro-3-(trifluoromethyl)phenyl]-2-oxo-3,4-dihydroquinolin-1(2H)-yl}acetate], for which the inhibition at 10 µM was determined as 74%.
Take `O=C(O)CN1C(=O)CCc2cc(-c3ccc(Cl)cc3)ccc21` [Compound 68, [6-(4-chlorophenyl)-2-oxo-3,4-dihydroquinolin-1(2H)-yl]acetic acid]: the inhibition at 10 µM amounted to 23%.
In the case of `O=C(O)CN1C(=O)CCc2cc(-c3ccc(C(F)(F)F)c(F)c3)ccc21` [Compound 74, 2-(6-(3-fluoro-4-(trifluoromethyl)phenyl)-2-oxo-3,4-dihydroquinolin-1(2H)-yl)acetic acid], the inhibition at 10 µM is 20%.
For `COc1cc2c(cc1-c1ccc(Cl)cc1)CCC(=O)N2` [Compound 77, 6-(4-chlorophenyl)-7-methoxy-3,4-dihydroquinolin-2(1H)-one], the inhibition at 10 µM stood at 72%.
As to `COc1c(-c2ccc(Cl)cc2)cc2c(c1Br)NC(=O)CC2` [Compound 78, 8-bromo-6-(4-chlorophenyl)-7-methoxy-3,4-dihydroquinolin-2(1H)-one], the inhibition at 10 µM was 34%.
In the case of `COc1cc2c(cc1-c1ccc(C(F)(F)F)cc1)CCC(=O)N2CC(=O)O` [Compound 79, 2-(7-methoxy-2-oxo-6-(4-(trifluoromethyl)phenyl)-3,4-dihydroquinolin-1(2H)-yl)acetic acid], the inhibition at 10 µM stood at 12%.
Regarding `COc1cc2c(cc1-c1ccc(Cl)cc1)CCC(=O)N2CC(=O)O` [Compound 80, 2-(6-(4-chlorophenyl)-7-methoxy-2-oxo-3,4-dihydroquinolin-1(2H)-yl)acetic acid], the inhibition at 10 µM came to 17%.
`COc1c(-c2ccc(Cl)cc2)cc2c(c1-c1ccc(Cl)cc1)N(CC(=O)O)C(=O)CC2` [Compound 81, 2-(6,8-bis(4-chlorophenyl)-7-methoxy-2-oxo-3,4-dihydroquinolin-1(2H)-yl)acetic acid]: the inhibition at 10 µM amounted to 30%.
As for `COc1cc2c(cc1-c1ccc(C(F)(F)F)c(F)c1)CCC(=O)N2` [Compound 82, 6-(3-fluoro-4-(trifluoromethyl)phenyl)-7-methoxy-3,4-dihydroquinolin-2(1H)-one], the figure is 54%; as for `O=C(O)c1ccc(CN2C(=O)CCc3cc(-c4ccc(C(F)(F)F)cc4)ccc32)cc1` [Compound 86, 4-((2-oxo-6-(4-(trifluoromethyl)phenyl)-3,4-dihydroquinolin-1(2H)-yl)methyl)benzoic acid], 13%; as for `COC(=O)c1ccc(CN2C(=O)CCc3cc(-c4ccc(C(F)(F)F)cc4)ccc32)cc1` [Compound 87, methyl 4-((2-oxo-6-(4-(trifluoromethyl)phenyl)-3,4-dihydroquinolin-1(2H)-yl)methyl)benzoate], 20%.
As for `COc1ccccc1OCC(O)CN1C(=O)CCc2cc(-c3ccc(F)cc3F)ccc21` (centres unmarked) [Compound 88, 6-(2,4-difluorophenyl)-1-(2-hydroxy-3-(2-methoxyphenoxy)propyl)-3,4-dihydroquinolin-2(1H)-one], the figure is 40%; as for `N#CCN1C(=O)CCc2cc(-c3ccc(C(F)(F)F)cc3)ccc21` [Compound 90, 2-(2-oxo-6-(4-(trifluoromethyl)phenyl)-3,4-dihydroquinolin-1(2H)-yl)acetonitrile], 22%; as for `CCOC(=O)c1cccc(CN2C(=O)CCc3cc(-c4ccc(C(F)(F)F)cc4)ccc32)c1` [Compound 91, ethyl 3-((2-oxo-6-(4-(trifluoromethyl)phenyl)-3,4-dihydroquinolin-1(2H)-yl)methyl)benzoate], 31%.

These data come from US8664379B2, “Fused heterocyclic compounds as ion channel modulators” (Gilead Sciences, Inc., priority 2008, dated 2014).
